Experiment [1] deals with T1, Ra3055 TM3 (Hominimerdicola alba, UniProt E9SHH5).
T1 construct: gene CUS_6909; truncation to Ig-like - GH9 (no CBM4_9, no CBM37); pET-46, E. coli
The experiment is described as follows: cellobiose release by HPAEC-PAD, Michaelis-Menten fit. The note with it: 0.01-30 mM cellotetraose, 10 min; pH and temperature of kinetics not stated. The class given is biochemical. From the text:
cellobiose release by HPAEC-PAD, Michaelis-Menten fit on Ra3055 TM3

The target in the next experiment is T2, Ra3055 TM4 (Hominimerdicola alba, UniProt E9SHH5).
T2 construct: gene CUS_6909; GH9 catalytic domain only; pET-46, E. coli
T2 sequence (E9SHH5 entry or part of it): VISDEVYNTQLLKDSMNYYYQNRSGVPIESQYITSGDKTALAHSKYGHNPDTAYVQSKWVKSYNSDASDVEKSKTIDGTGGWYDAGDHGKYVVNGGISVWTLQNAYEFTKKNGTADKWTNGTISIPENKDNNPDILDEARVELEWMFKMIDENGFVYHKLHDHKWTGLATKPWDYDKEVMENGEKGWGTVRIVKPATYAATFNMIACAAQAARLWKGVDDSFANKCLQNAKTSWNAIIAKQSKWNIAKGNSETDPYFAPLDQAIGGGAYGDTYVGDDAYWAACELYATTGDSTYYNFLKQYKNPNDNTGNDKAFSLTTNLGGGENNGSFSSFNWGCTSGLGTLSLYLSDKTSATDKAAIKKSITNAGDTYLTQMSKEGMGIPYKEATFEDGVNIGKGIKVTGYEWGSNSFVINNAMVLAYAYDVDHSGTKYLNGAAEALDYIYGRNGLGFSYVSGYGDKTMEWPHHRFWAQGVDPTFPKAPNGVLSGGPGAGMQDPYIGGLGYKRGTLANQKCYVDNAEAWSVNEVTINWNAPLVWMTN
The description is as above. The experiment is classed as biochemical. The conditions noted are these: 0.01-30 mM cellotetraose, 10 min; pH and temperature of kinetics not stated. The source says:
cellobiose release by HPAEC-PAD, Michaelis-Menten fit on Ra3055 TM4

In experiment [2] the target is T3, Ra3055 TM2 (Hominimerdicola alba, UniProt E9SHH5).
T3 construct: gene CUS_6909; truncation without C-terminal CBM37 (CBM4_9 - Ig-like - GH9); pET-46, E. coli
T3 sequence (E9SHH5 entry or part of it): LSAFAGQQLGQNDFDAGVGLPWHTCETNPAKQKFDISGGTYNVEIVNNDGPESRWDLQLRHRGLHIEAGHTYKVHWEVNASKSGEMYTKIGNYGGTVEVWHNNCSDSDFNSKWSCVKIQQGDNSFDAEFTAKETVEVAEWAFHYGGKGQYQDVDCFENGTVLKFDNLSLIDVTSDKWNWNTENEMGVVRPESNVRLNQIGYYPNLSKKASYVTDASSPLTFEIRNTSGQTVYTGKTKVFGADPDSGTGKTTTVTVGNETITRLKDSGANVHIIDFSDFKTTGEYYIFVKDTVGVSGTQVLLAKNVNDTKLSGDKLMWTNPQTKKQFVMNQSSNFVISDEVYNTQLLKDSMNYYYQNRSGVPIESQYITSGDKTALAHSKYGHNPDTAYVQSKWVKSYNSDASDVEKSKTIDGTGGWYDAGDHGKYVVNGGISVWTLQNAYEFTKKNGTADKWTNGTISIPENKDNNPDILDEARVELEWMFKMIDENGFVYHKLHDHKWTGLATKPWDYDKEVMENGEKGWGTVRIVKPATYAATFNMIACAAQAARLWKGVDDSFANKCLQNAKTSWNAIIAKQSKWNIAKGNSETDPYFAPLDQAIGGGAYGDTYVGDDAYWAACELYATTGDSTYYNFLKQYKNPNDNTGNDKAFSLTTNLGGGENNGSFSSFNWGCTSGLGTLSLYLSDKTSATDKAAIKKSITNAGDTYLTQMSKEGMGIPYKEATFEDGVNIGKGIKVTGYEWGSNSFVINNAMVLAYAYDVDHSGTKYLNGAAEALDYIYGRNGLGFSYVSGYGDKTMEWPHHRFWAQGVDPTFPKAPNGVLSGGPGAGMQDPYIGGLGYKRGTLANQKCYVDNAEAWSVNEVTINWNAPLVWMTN
The description is as above. The class given is biochemical. The note with it: 0.01-30 mM cellotetraose, 10 min; pH and temperature of kinetics not stated. From the text:
cellobiose release by HPAEC-PAD, Michaelis-Menten fit on Ra3055 TM2

The target in experiment [3] is T4, Ra3055 TM1 (Hominimerdicola alba, UniProt E9SHH5).
T4 construct: gene CUS_6909; truncation without N-terminal CBM4_9 (Ig-like - GH9 - CBM37); pET-46, E. coli
T4 sequence (E9SHH5 entry or part of it): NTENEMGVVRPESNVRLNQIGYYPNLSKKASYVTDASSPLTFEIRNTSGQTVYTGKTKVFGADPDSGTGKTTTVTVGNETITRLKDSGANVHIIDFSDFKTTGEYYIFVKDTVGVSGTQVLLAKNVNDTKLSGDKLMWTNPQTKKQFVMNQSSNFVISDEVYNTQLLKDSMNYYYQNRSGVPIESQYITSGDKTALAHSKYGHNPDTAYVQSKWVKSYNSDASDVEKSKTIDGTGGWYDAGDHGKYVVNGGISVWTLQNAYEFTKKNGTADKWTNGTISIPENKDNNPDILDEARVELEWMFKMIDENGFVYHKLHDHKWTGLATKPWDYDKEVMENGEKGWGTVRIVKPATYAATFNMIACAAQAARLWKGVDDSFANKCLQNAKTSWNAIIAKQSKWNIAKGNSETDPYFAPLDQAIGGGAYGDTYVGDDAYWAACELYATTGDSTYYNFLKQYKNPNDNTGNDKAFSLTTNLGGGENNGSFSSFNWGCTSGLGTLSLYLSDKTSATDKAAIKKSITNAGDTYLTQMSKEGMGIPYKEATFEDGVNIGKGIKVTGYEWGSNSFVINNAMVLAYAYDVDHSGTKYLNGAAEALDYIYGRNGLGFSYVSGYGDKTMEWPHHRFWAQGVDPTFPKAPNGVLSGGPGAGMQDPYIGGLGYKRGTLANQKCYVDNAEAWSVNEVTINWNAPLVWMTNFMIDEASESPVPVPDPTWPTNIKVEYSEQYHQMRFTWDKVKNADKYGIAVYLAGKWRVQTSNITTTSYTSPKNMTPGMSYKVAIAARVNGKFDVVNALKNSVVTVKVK
Described as above. The experiment is classed as biochemical. The note with it: 0.01-30 mM cellotetraose, 10 min; pH and temperature of kinetics not stated. The source says:
cellobiose release by HPAEC-PAD, Michaelis-Menten fit on Ra3055 TM1

The next experiment addresses T5, Ra3055 (WT) (Hominimerdicola alba, UniProt E9SHH5).
T5 construct: gene CUS_6909; full-length multimodular CBM4_9 - Ig-like - GH9 - CBM37
The experiment is described as follows: isothermal titration calorimetry. The class given is binding. The conditions noted are these: 50 mM sodium phosphate, 150 mM NaCl, pH 7.5; single-site fit. In general terms: Isothermal titration calorimetry measures the heat released or taken up as one component is titrated into another.

Experiment [4] has as its target T4, Ra3055 TM1. The experiment is described as follows: isothermal titration calorimetry. The conditions noted are these: 50 mM sodium phosphate, 150 mM NaCl, pH 7.5; single-site fit. The experiment is classed as binding.
For experiment [5], the target named is T3, Ra3055 TM2. The experiment is described as follows: isothermal titration calorimetry. The conditions noted are these: 50 mM sodium phosphate, 150 mM NaCl, pH 7.5; single-site fit. The experiment is classed as binding.
For experiment [6], the target named is T1, Ra3055 TM3. Put plainly: isothermal titration calorimetry. The note with it: 50 mM sodium phosphate, 150 mM NaCl, pH 7.5; single-site fit. The class given is binding.

T1 sequence (E9SHH5 entry or part of it): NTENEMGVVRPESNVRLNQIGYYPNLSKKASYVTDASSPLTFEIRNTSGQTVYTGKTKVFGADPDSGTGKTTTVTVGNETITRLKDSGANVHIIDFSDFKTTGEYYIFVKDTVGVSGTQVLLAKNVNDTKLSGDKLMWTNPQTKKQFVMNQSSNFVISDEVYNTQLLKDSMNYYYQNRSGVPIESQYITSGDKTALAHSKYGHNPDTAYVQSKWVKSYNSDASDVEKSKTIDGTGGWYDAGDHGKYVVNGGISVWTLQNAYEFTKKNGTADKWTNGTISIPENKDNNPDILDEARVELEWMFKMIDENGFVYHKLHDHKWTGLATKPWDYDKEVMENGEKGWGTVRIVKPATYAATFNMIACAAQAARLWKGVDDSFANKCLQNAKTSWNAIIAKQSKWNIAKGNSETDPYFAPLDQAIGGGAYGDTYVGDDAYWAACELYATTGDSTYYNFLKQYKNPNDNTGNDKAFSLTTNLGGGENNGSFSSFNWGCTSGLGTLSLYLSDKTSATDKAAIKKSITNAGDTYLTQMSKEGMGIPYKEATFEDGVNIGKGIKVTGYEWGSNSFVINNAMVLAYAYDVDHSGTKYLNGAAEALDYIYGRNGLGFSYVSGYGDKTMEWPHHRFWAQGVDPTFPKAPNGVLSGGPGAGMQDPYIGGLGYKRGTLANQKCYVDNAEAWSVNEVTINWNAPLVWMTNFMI
T5 sequence (E9SHH5 entry or part of it): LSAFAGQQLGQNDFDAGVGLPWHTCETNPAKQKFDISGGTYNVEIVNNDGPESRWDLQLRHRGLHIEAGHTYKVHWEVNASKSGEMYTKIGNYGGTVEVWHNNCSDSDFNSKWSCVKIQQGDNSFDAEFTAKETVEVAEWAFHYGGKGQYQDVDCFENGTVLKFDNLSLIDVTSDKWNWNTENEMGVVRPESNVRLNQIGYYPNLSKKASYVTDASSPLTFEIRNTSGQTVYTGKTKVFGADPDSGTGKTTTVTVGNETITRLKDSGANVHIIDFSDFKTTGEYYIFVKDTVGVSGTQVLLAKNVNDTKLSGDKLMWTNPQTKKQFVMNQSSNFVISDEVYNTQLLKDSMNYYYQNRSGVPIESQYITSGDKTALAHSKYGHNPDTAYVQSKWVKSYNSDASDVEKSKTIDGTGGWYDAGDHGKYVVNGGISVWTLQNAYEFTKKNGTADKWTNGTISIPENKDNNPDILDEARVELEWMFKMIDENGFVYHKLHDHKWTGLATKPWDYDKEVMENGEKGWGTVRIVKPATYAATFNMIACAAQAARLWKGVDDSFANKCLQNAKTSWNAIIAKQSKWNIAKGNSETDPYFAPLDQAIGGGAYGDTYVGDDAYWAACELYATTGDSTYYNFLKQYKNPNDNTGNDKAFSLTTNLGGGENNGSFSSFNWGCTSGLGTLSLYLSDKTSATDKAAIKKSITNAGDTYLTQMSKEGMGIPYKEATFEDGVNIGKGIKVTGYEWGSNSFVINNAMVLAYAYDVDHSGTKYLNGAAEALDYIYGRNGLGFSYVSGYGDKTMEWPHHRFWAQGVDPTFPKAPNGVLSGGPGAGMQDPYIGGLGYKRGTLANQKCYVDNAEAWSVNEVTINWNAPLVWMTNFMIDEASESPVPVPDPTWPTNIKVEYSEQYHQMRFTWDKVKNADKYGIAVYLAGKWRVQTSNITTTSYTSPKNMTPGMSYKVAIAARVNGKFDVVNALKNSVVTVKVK

For orientation: Km means the substrate concentration at which the rate is half of its maximum. In the case of `OC[C@H]1O[C@@H](O[C@H]2[C@H](O)[C@@H](O)[C@H](O[C@H]3[C@H](O)[C@@H](O)[C@H](O[C@H]4[C@H](O)[C@@H](O)C(O)O[C@@H]4CO)O[C@@H]3CO)O[C@@H]2CO)[C@H](O)[C@@H](O)[C@@H]1O` (some centres unmarked) [G4, cellotetraose], the Km at Ra3055 TM3 [1] was found to be 2.9 ± 0.1 mM; at Ra3055 TM4 it was 7.9 ± 3.6 mM; on Ra3055 TM2 [2], 5.6 ± 0.9 mM; at Ra3055 TM1 [3], 4.5 ± 0.3 mM.
In the case of `OC[C@H]1O[C@@H](O[C@H]2[C@H](O)[C@@H](O)[C@H](O[C@H]3[C@H](O)[C@@H](O)[C@H](O[C@H]4[C@H](O)[C@@H](O)[C@H](O[C@H]5[C@H](O)[C@@H](O)C(O)O[C@@H]5CO)O[C@@H]4CO)O[C@@H]3CO)O[C@@H]2CO)[C@H](O)[C@@H](O)[C@@H]1O` (some centres unmarked) [G5, cellopentaose], the Ka is reported as 2.94E4±7.38E3 at Ra3055 (WT), 6.38E5±1.57E5 at Ra3055 TM1 [4], 3.49E4±4.59E3 on Ra3055 TM2 [5] and 5.06E5±4.41E4 on Ra3055 TM3 [6].

For the origin of these results see paper PMC5066209, “Multiple cellobiohydrolases and cellobiose phosphorylases cooperate in the ruminal bacterium Ruminococcus albus 8 to degrade cellooligosaccharides” (Scientific Reports, 2016).
